According to ChEMBL document CHEMBL5696442, “Discovery of type II inhibitors of TGFβ-activated kinase 1 (TAK1) and mitogen-activated protein kinase kinase kinase kinase 2 (MAP4K2)” (J Med Chem, 2015):

Key:
[1] = molecular target: Mitogen-activated protein kinase 8 (Homo sapiens, UniProt P45983); test: Inhibition of JNK1 Lys2 labeling site in human Huh-7 cell lysate at 1 uM by KiNativ Profiling analysis relative to control; format: subcellular
[2] = molecular target: T1, Mitogen-activated protein kinase kinase kinase 7 (Homo sapiens) (UniProt O43318); test: Inhibition of TAK1 Lys2 labeling site in human Huh-7 cell lysate at 1 uM by KiNativ Profiling analysis relative to control; format: subcellular
T1 sequence (whole entry): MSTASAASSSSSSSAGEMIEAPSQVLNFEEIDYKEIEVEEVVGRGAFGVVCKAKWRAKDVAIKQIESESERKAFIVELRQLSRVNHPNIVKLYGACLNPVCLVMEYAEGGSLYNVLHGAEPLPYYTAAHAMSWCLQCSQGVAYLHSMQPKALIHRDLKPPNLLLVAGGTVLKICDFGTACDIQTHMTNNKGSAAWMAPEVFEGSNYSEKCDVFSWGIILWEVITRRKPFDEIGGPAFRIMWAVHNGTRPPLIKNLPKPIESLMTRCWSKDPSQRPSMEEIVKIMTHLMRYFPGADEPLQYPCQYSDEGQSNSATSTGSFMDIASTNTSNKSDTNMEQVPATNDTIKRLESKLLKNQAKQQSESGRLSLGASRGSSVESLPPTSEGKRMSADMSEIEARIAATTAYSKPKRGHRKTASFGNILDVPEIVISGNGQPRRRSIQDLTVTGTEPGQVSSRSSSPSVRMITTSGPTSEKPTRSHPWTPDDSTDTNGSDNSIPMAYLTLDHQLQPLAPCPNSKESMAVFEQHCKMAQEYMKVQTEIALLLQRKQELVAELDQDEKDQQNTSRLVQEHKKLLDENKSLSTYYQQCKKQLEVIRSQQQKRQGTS

[3] = molecular target: Proto-oncogene tyrosine-protein kinase Src (Homo sapiens, UniProt P12931); test: Inhibition of SRC Lys1 labeling site in human A-375 cells at 0.5 uM by KiNativ Profiling analysis relative to control; format: cell-based
[4] = molecular target: Cyclin-dependent kinase 2 (Homo sapiens) (UniProt P24941); test: Inhibition of CDK2 Lys2 labeling site in human A-375 cells at 0.05 uM by KiNativ Profiling analysis relative to control; format: cell-based
[5] = molecular target: T2, Ephrin type-B receptor 4 (Homo sapiens) (UniProt P54760); test: Inhibition of EphB4 ACT labeling site in human Huh-7 cells at 1 uM by KiNativ Profiling analysis relative to control; format: cell-based
T2 sequence (whole entry): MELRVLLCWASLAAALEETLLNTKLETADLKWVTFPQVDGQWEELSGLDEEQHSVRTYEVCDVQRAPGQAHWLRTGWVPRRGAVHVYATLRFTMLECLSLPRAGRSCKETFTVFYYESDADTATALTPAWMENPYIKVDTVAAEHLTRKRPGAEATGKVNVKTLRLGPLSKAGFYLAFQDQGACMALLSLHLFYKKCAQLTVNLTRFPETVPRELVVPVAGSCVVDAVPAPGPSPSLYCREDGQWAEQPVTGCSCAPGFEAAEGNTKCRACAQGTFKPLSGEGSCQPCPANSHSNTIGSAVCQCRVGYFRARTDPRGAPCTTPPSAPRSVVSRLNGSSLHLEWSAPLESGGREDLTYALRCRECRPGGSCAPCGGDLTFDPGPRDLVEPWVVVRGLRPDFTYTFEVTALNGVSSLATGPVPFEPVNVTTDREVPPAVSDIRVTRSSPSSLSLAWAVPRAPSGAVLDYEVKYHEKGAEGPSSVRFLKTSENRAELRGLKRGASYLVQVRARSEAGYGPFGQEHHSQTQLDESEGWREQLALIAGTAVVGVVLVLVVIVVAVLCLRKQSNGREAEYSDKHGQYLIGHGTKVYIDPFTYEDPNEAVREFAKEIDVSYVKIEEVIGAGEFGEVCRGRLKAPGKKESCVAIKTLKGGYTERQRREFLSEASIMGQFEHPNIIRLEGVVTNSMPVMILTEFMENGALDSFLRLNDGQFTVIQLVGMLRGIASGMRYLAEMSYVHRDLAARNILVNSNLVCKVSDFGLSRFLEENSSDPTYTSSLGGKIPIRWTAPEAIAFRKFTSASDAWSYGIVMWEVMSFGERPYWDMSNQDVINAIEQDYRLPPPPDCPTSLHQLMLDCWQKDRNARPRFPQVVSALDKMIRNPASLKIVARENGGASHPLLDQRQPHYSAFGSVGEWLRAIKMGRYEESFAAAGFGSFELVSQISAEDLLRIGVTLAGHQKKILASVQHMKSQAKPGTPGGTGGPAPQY

[6] = molecular target: T3, Serine/threonine-protein kinase TAO1 (Homo sapiens) (UniProt Q7L7X3); test: Inhibition of TAO1 Lys2 labeling site in human A-375 cells at 0.5 uM by KiNativ Profiling analysis relative to control; format: cell-based
T3 sequence (whole entry): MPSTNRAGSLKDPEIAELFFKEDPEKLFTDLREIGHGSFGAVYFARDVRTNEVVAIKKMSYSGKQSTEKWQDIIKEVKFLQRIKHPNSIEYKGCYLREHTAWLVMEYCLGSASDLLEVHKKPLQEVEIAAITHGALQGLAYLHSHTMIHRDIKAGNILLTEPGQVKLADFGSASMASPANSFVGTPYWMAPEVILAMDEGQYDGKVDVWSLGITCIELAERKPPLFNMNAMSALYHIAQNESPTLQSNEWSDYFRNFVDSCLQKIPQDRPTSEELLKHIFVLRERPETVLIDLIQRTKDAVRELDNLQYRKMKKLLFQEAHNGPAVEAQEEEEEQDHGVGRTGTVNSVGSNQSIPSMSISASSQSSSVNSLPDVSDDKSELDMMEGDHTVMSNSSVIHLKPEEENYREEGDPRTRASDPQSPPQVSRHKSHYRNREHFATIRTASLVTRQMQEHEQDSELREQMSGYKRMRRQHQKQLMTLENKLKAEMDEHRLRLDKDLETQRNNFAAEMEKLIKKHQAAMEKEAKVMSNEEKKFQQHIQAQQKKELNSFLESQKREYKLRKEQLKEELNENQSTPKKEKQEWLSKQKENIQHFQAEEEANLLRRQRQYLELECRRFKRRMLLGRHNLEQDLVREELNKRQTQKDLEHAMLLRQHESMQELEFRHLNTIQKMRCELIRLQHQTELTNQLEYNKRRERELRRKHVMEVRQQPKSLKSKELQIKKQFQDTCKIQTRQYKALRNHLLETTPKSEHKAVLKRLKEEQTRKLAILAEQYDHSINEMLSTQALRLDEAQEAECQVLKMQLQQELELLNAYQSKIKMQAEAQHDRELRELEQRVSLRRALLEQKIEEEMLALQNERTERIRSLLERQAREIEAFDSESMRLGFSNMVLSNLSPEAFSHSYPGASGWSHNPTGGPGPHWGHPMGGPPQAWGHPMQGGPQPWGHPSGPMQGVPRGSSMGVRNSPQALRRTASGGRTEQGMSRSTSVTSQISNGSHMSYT

[7] = molecular target: Serine/threonine-protein kinase 26 (Homo sapiens) (UniProt Q9P289); test: Inhibition of MST4 ACT labeling site in human A-375 cells at 5 uM by KiNativ Profiling analysis relative to control; format: cell-based
Chain of Serine/threonine-protein kinase 26 (Homo sapiens) (Q9P289 2-416 limits assumed): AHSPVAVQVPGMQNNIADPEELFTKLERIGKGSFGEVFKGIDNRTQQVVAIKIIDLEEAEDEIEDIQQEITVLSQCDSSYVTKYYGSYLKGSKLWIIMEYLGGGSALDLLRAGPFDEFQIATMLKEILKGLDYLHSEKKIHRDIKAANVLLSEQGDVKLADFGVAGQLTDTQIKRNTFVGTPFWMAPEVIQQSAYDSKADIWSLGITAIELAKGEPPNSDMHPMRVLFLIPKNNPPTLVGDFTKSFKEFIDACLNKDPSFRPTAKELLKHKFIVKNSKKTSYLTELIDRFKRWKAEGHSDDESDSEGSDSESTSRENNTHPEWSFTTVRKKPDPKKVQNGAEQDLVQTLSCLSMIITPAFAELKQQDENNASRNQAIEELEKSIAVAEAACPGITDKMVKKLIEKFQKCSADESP

Chain of Mitogen-activated protein kinase 8 (P45983 whole entry): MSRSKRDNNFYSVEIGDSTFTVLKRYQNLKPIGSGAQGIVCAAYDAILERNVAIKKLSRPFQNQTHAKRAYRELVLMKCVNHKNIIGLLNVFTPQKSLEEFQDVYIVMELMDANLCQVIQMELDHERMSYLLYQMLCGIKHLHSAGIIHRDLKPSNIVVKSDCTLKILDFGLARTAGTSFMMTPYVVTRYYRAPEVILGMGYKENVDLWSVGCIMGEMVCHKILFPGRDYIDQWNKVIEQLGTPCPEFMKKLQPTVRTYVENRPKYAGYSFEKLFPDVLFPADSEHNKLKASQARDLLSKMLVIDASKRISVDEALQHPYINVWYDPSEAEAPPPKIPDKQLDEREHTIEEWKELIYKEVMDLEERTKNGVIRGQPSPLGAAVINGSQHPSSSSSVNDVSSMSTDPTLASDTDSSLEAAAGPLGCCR
Chain of Proto-oncogene tyrosine-protein kinase Src (P12931 2-536 limits assumed): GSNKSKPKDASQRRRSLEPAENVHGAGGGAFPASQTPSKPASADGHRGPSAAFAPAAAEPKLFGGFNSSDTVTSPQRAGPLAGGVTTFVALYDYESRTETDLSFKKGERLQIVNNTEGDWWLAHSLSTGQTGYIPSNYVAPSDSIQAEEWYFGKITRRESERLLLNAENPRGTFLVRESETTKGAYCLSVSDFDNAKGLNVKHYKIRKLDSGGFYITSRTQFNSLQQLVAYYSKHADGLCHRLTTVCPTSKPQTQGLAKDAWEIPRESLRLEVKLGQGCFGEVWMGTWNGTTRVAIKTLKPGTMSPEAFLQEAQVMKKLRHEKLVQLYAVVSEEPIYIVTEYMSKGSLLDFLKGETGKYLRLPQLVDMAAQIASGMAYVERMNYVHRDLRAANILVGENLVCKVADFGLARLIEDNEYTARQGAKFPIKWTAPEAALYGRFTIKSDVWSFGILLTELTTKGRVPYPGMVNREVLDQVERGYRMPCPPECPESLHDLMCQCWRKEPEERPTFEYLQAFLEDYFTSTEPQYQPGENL

Row | Compound | inhibition [1] | inhibition [2] | inhibition [3] | inhibition [4] | inhibition [5] | inhibition [6] | inhibition [7]
1 | CNc1cc(Oc2cc(C(=O)Nc3cc(-n4cnc(C)c4)cc(C(F)(F)F)c3)ccc2C)ncn1 | 18.4% | 29.3% |  |  |  |  | 
2 | CCN1CCN(Cc2ccc(NC(=O)c3ccc(C)c(Oc4ccnc5[nH]ccc45)c3)cc2C(F)(F)F)CC1 |  |  | 77.2% | 16.2% | 12.1% | -5.6% | 35.1%
3 | CCN1CCN(Cc2ccc(NC(=O)c3ccc(C)c(/C=C/c4cnc5[nH]ccc5c4OC)c3)cc2C(F)(F)F)CC1 |  |  | 72.5% | 13.3% |  | 6.6% | 13.7%
4 | CNc1cc(Oc2cc(C(=O)Nc3cc(N4CCN(C)CC4)cc(C(F)(F)F)c3)ccc2C)ncn1 | 7% | 7% |  |  | 75.4% |  | 
